The subject of assay [1] is Escherichia coli. Nature of the assay: Inhibition of Escherichia coli ArnB upto 100 uM.
Assay [2] concerns Escherichia coli. Put plainly: Inhibition of Escherichia coli ArnA upto 100 uM.
The target in assay [3] is Undecaprenyl phosphate-alpha-4-amino-4-deoxy-L-arabinose arabinosyl transferase (Salmonella typhimurium (strain LT2 / SGSC1412 / ATCC 700720)) (UniProt O52327). Put plainly: Inhibition of PmrK/ArnT in Salmonella Typhimurium JSG435 membranes assessed as effect on transfer of aminoarabinose tp lipid A. The following applies: Salmonella enterica subsp. enterica serovar Typhimurium.

Activity calls are given as the source filed them. The calls are words filed in the database; no cut-off is given here.

`COP(=O)(N[C@H]1CO[C@H](OP(=O)(O)O)[C@H](OC(C)=O)[C@H]1OC(C)=O)OC`: the result in the assay on Escherichia coli [1] and with Escherichia coli [2] was Active.

Consider `CC(=O)O[C@@H]1[C@@H](OC(C)=O)[C@@H](OP(=O)(O)OP(=O)(O)OC[C@H]2O[C@@H](n3ccc(=O)[nH]c3=O)[C@H](O)[C@@H]2O)OC[C@@H]1N=[N+]=[N-].CCCCCCCCCN`, for which the result in the assay on Escherichia coli [1] and in the assay with Escherichia coli [2] was Active.

Consider `CC(=O)OC1OC[C@H](N=[N+]=[N-])[C@H](OC(C)=O)[C@H]1OC(C)=O` (stereo partly drawn), for which the outcome (in the assay on Escherichia coli [1]; in assay [3]; in the assay with Escherichia coli [2]) was Active.

For the compound `CCCCCCCCN.CCOP(=O)(Cc1ccccc1)N[C@H]1CO[C@H](OP(=O)(O)OP(=O)(O)OC[C@H]2O[C@@H](n3ccc(=O)[nH]c3=O)[C@H](O)[C@@H]2O)[C@H](OC(C)=O)[C@H]1OC(C)=O` (stereo partly drawn), the result in the assay on Escherichia coli [1] and with Escherichia coli [2] was Active.

Consider `CC(=O)O[C@@H]1[C@@H](OC(C)=O)[C@@H](OP(=O)(O)O)OC[C@@H]1N=[N+]=[N-]`, for which the outcome in the assay with Escherichia coli [1] and in the assay on Escherichia coli [2] was Active.

With `COP(=O)(N[C@H]1CO[C@H](OP(=O)(OCc2ccccc2)OCc2ccccc2)[C@H](OC(C)=O)[C@H]1OC(C)=O)OC`, the result with Escherichia coli [1] and in the assay with Escherichia coli [2] was Active.

These data come from ChEMBL document CHEMBL1143187, “Synthesis of and evaluation of lipid A modification by 4-substituted 4-deoxy arabinose analogs as potential inhibitors of bacterial polymyxin resistance” (Bioorg Med Chem Lett, 2008).
